Measured values as given in PubChem BioAssay (NCI).
Values joined by “and” are separate entries in the source; they are usually repeats but may differ in a detail not shown here. Equal values may be shown once.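 Five compound concentrations were applied to cells in 96-well plates for 48 hours; endpoints were derived by simple linear interpolation of the resulting dose-response curve. At the GI50, growth is halved. The concentration for full growth arrest is given as TGI.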

Legend:
Assay in all cases: NCI tumour cell line growth inhibition, 48 h
OVCAR-8 ovarian = test system: OVCAR-8 ovarian
MDA-MB-231 breast = test system: MDA-MB-231 breast
ACHN renal = test system: ACHN renal
HL-60(TB) leukemia = test system: HL-60(TB) leukemia
SF-295 CNS = test system: SF-295 CNS
HCT-15 colon = test system: HCT-15 colon
SNB-19 CNS = test system: SNB-19 CNS
NCI-H460 lung = test system: NCI-H460 lung
SK-OV-3 ovarian = test system: SK-OV-3 ovarian
K-562 leukemia = test system: K-562 leukemia

SMILES | GI50 (OVCAR-8 ovarian) | TGI (OVCAR-8 ovarian) | GI50 (MDA-MB-231 breast) | TGI (MDA-MB-231 breast) | GI50 (ACHN renal) | TGI (ACHN renal) | TGI (HL-60(TB) leukemia) | GI50 (SF-295 CNS) | TGI (SF-295 CNS) | GI50 (HCT-15 colon) | TGI (HCT-15 colon) | GI50 (SNB-19 CNS) | TGI (SNB-19 CNS) | GI50 (NCI-H460 lung) | TGI (NCI-H460 lung) | GI50 (SK-OV-3 ovarian) | TGI (SK-OV-3 ovarian) | GI50 (K-562 leukemia) | TGI (K-562 leukemia) | GI50 (HL-60(TB) leukemia)
CS(=O)(=O)CCNCc1ccc(-c2ccc3ncnc(Nc4ccc(OCc5cccc(F)c5)c(Cl)c4)c3c2)o1 | 6.83 µM and 4.17 µM and 4.12 µM | > 10 µM and > 100 µM and 32.2 µM | > 10 µM and 4.14 µM and 9.07 µM | > 10 µM and > 100 µM and 29.5 µM | 539 nM and 435 nM and 323 nM | > 10 µM and > 100 µM and 54.4 µM | > 10 µM and > 100 µM and 23.6 µM | 6.84 µM and 5.32 µM and 3.54 µM | > 10 µM and > 100 µM and 24.8 µM | 4.97 µM and 3.63 µM and 3.54 µM | > 10 µM and > 100 µM and 27.6 µM | > 10 µM and 99.6 µM and 17.7 µM | > 10 µM and > 100 µM and 66.7 µM | > 10 µM and 4.11 µM and 8.98 µM | > 10 µM and > 29.3 µM and 48.7 µM | 0.0681 µM and 0.0409 µM and 0.0441 µM | > 10 µM and > 100 µM and 31.7 µM | > 10000 nM and 1990 nM and 2610 nM | > 10 µM and 4.67 µM and 18.3 µM | 
COc1cc(OC)cc(Oc2cnc3cc(N)cc(N)c3n2)c1 | 22.6 µM | 52.5 µM | 6.56 µM | 21 µM | 15800 nM | 33.3 µM | 28 µM | 11.6 µM | 32.7 µM | 18.3 µM | 45.1 µM | 17.5 µM | 45.6 µM | 19.4 µM | 41.2 µM | 23.7 µM | 74.5 µM | 20200 nM | 46.8 µM | 5680 nM
CCc1ccccc1NC(=O)C(C#N)C1=C(Cl)C(=O)c2ccccc2C1=O (centres undefined) |  | 37 µM |  | 22 µM |  | 29.9 µM | 83.3 µM |  | 52.6 µM |  | 28.7 µM |  | 72.3 µM |  | 40.6 µM |  | > 100 µM |  | > 100 µM | 
CN1CC=C(c2cc(NC(=O)Nc3ccc(Oc4ccnc(NC(=O)C5CC5)c4)c(F)c3)cc(C(F)(F)F)c2)CC1 | 0.238 µM | 5.12 µM | 0.176 µM | 0.806 µM | 968 nM | 2.67 µM | 0.704 µM | 0.933 µM | 2.94 µM | 1.08 µM | 4.33 µM | 0.227 µM | 1.48 µM | 0.194 µM | 0.66 µM | 2.74 µM | 7.25 µM |  |  | 183 nM
COc1cc(-c2cc3ncccc3c3nc(OCCN(C)C)c4cccnc4c23)cc(OC)c1OC | 0.339 µM | 1.94 µM |  |  | 281 nM | 1.54 µM | 4.73 µM | 0.533 µM | 2.39 µM | 0.502 µM | 23.4 µM | 0.576 µM | 29.5 µM | 0.349 µM | 1.88 µM | 0.458 µM | 2.18 µM | 339 nM | 4.63 µM | 1250 nM
COc1ccc2c(c1)Oc1cc(O)ccc1[C@H]2c1ccccc1C(=O)NC(C)c1ccccc1 (some centres undefined) |  | 36 µM |  |  |  | 29.8 µM | 44.1 µM |  | 25.9 µM |  | 35.5 µM |  | 33 µM |  | 26.8 µM |  | 39.3 µM |  | > 100 µM | 
CC1(C)CC(=O)C=C(/C=C/Sc2c(Cl)c(Cl)nc(Cl)c2Cl)C1 | 19.3 µM | 45 µM | 7.22 µM | 20.4 µM | 11100 nM | 23.3 µM |  | 17.7 µM | 35.6 µM | 5.64 µM | 23 µM | 15.9 µM | 29.5 µM | 11.8 µM | 32.1 µM | 19.9 µM | 34.8 µM | 8790 nM | > 100 µM | 
COc1cc2c(cc1OC)C(C#N)N(C(=O)c1ccccc1)C=C2OC(=O)c1ccccc1 (centres undefined) |  | 71.8 µM |  |  |  | 43.6 µM | > 100 µM |  | 45.4 µM |  | > 100 µM |  | 67.5 µM |  | > 100 µM |  | > 100 µM |  | > 100 µM | 
O=C(Cc1ccccc1[N+](=O)[O-])C(CO)c1ccccc1[N+](=O)[O-] (centres undefined) |  | > 100 µM |  |  |  | > 100 µM | > 100 µM |  | > 100 µM |  | > 100 µM |  | > 100 µM |  | > 100 µM |  | > 100 µM |  | > 100 µM | 
O=C1/C(=C/c2ccc([N+](=O)[O-])s2)Oc2cc(Cl)ccc21 | 0.469 µM | 2.59 µM | 0.404 µM | 1.75 µM | 475 nM | 1.84 µM |  | 4.46 µM | > 100 µM | 0.276 µM | 1.12 µM | 1.72 µM | 4.52 µM | 1.84 µM | > 100 µM | 23.5 µM | > 100 µM | 296 nM | 1.46 µM | 
Cc1cc(=O)[nH]c(CNC(=O)c2ccc3ccccc3c2)n1 |  | > 100 µM |  |  |  | > 100 µM | > 100 µM |  | > 100 µM |  | > 100 µM |  | > 100 µM |  | > 100 µM |  | > 100 µM |  | > 100 µM | 
CC(=O)OCC12CN(C#N)C3C4COC(CC41)C1(C(=O)N(C)c4ccccc41)C32 (centres undefined) |  | 55 µM |  | 64.9 µM |  | 38 µM | 30.7 µM |  | > 100 µM |  | 35.5 µM |  |  |  | 94.5 µM |  | > 100 µM |  | > 100 µM | 
COC(=O)[C@H](CC(C)C)NC(=O)[C@H](Cc1ccccc1)N1CC2C=CC1C2 (some centres undefined) |  | > 100 µM |  |  |  | > 100 µM | > 100 µM |  | > 100 µM |  | > 100 µM |  | > 100 µM |  | > 100 µM |  | > 100 µM |  | > 100 µM | 
COC(=O)c1cc(NC(=O)c2cc(NC(=O)c3cc([N+](=O)[O-])n(C)c3)cn2C)cn1C | > 100 µM | > 100 µM | 51 µM | > 100 µM | 2530 nM | 53.5 µM |  | 32.8 µM | > 100 µM | 44.8 µM | > 100 µM | 34.2 µM | > 100 µM | > 100 µM | > 100 µM | 45.3 µM | > 100 µM | > 100000 nM | > 100 µM | 
O=C([O][Hg][c]1ccccc1)c1ccccc1 |  |  | 1.86 µM | 4.62 µM | 1570 nM | 2.99 µM | 1.86 µM | 12.2 µM | 25.5 µM | 0.437 µM | 1.79 µM | 3.32 µM | 8.7 µM | 2.6 µM | 9.27 µM | 4.03 µM | 11.9 µM | 1110 nM | 4.74 µM | 325 nM
O=C(O)CN(c1ccccc1)S(=O)(=O)c1cccc([N+](=O)[O-])c1 |  | > 100 µM |  |  |  | > 100 µM | > 100 µM |  | > 100 µM |  | > 100 µM |  | > 100 µM |  | > 100 µM |  | > 100 µM |  | > 100 µM | 
COC(=O)Oc1nn(C(=O)OC)c(=O)c2ccccc12 |  | > 100 µM |  | > 100 µM |  | > 100 µM | > 100 µM |  | > 100 µM |  | > 100 µM |  | > 100 µM |  |  |  | > 100 µM |  | > 100 µM | 
